From the supplement of paper PMC10307832

Experiments:
Test in all cases: relative viability (nuclei count vs DMSO), 5 days (fraction); higher = more cells survive
[1] = compound: Cn1c(Nc2ccc(C(F)(F)F)cc2)nc2cc(Oc3ccnc(-c4ncc(C(F)(F)F)[nH]4)c3)ccc21 [RAF265] + CCNC(=O)c1noc(-c2cc(C(C)C)c(O)cc2O)c1-c1ccc(CN2CCOCC2)cc1 [Luminespib] (partner 0.01 µM)
Summary of the method: (§1)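 Relative viability divides the nuclei count in treated wells by that in vehicle wells. Lung cancer cell lines were seeded in 1536-well plates, dosed by pin tool the next day, and fixed and stained after 5 days in one step with final 0.05% Triton X-100, 1% formaldehyde and 1 ug/ml Hoechst. Dosing was a single drug or a fixed anchor-drug dose plus five library-drug doses (not always all listed) in √10 steps, and values are medians of duplicate plates imaged at 4×.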

[2] = compound: Cn1c(Nc2ccc(C(F)(F)F)cc2)nc2cc(Oc3ccnc(-c4ncc(C(F)(F)F)[nH]4)c3)ccc21 [RAF265] + CS(=O)(=O)CCNCc1ccc(-c2ccc3ncnc(Nc4ccc(OCc5cccc(F)c5)c(Cl)c4)c3c2)o1 [Lapatinib] (partner 2 µM)
Summary of the method: as §1

[3] = compound: Cc1ccc(-n2nc(C(C)(C)C)cc2NC(=O)Nc2ccc(OCCN3CCOCC3)c3ccccc23)cc1 [Doramapimod] + CS(=O)(=O)N1CCN(Cc2cc3nc(-c4cccc5[nH]ncc45)nc(N4CCOCC4)c3s2)CC1 [Pictilisib] (partner 1 µM)
Summary of the method: as §1

[4] = compound: C1=CC=C2C(=C1)C=CC(=C2SSC3=C(C=CC4=CC=CC=C43)O)O [IPA-3] + Cc1nc(Nc2ncc(C(=O)Nc3c(C)cccc3Cl)s2)cc(N2CCN(CCO)CC2)n1 [Dasatinib] (partner 0.075 µM)
Summary of the method: as §1

| Cell Line | relative viability ([1]; first compound 0.01 µM) | relative viability ([1]; first compound 0.03162 µM) | relative viability ([1]; first compound 0.1 µM) | relative viability ([1]; first compound 0.3162 µM) | relative viability ([1]; first compound 1 µM) | relative viability ([2]; first compound 0.01 µM) | relative viability ([2]; first compound 0.03162 µM) | relative viability ([2]; first compound 0.1 µM) | relative viability ([2]; first compound 0.3162 µM) | relative viability ([2]; first compound 1 µM) | relative viability ([3]; first compound 0.02 µM) | relative viability ([3]; first compound 0.06325 µM) | relative viability ([3]; first compound 0.2 µM) | relative viability ([3]; first compound 0.6325 µM) | relative viability ([3]; first compound 2 µM) | relative viability ([4]; first compound 0.2 µM) | relative viability ([4]; first compound 0.6325 µM) | relative viability ([4]; first compound 2 µM) | relative viability ([4]; first compound 6.325 µM) | relative viability ([4]; first compound 20 µM) |
| --- | --- | --- | --- | --- | --- | --- | --- | --- | --- | --- | --- | --- | --- | --- | --- | --- | --- | --- | --- | --- |
| LCLC-97TM1 | 0.819 | 0.67 | 0.632 | 0.309 | 0.306 | 1.12 | 1.05 | 0.443 | 0.856 | 0.219 | 0.195 | 0.162 | 0.177 | 0.18 | 0.206 | 0.933 | 0.844 | 0.945 | 1.01 | 0.83 |
| NCI-H2170 | 0.791 | 0.658 | 0.688 | 0.254 | 0.381 | 0.278 | 0.306 | 0.284 | 0.296 | 0.287 | 0.332 | 0.325 | 0.295 | 0.438 | 0.269 | 0.573 | 0.339 | 0.467 | 0.614 | 0.613 |
| NCI-H1793 | 0.212 | 0.147 | 0.184 |  | 0.222 | 0.652 | 0.658 | 0.631 | 0.296 | 0.512 | 0.392 | 0.324 | 0.245 | 0.336 | 0.252 | 0.442 | 0.325 | 0.362 | 0.381 | 0.43 |
| NCI-H3122 | 0.0828 | 0.0692 | 0.0932 | 0.0953 | 0.0538 | 1.04 | 1.11 | 1.07 | 0.953 | 0.98 | 0.578 | 0.548 | 0.586 | 0.694 | 0.65 | 0.804 | 0.751 | 0.847 | 0.919 | 0.926 |
| PC-14 | 0.163 | 0.128 | 0.248 |  | 0.139 | 0.339 | 0.331 | 0.403 |  | 0.383 | 0.636 | 0.644 | 0.645 | 0.655 | 0.616 | 0.29 | 0.278 | 0.271 | 0.268 | 0.309 |
| EPLC-272H | 0.169 | 0.224 | 0.333 | 0.138 | 0.177 | 0.976 | 0.707 | 0.655 | 0.855 | 0.343 | 0.344 | 0.418 | 0.377 | 0.296 | 0.275 | 0.337 | 0.325 | 0.413 | 0.411 | 0.543 |
| A-427 | 0.691 | 0.821 | 1.16 | 0.631 | 0.226 | 1.06 | 0.949 | 1.06 | 1.11 | 0.713 | 0.642 | 0.814 | 0.845 |  | 0.676 | 0.682 | 0.632 | 0.634 | 0.713 | 0.72 |
